Holding throughout (test): Kinase profiling
Format in all cases: biochemical

Test [1] concerns the target T1, GRK5 (Homo sapiens, UniProt P34947).
T1 construct: purchased ProQinase (Freiburg, Germany)
As to the method:
(§1) The analysis was performed by ProQinase (Freiburg, Germany).

In test [2] the target is T2, PRKG2 (Homo sapiens, UniProt Q13237).
T2 construct: purchased ProQinase (Freiburg, Germany)
T2 sequence (Q13237 1-762): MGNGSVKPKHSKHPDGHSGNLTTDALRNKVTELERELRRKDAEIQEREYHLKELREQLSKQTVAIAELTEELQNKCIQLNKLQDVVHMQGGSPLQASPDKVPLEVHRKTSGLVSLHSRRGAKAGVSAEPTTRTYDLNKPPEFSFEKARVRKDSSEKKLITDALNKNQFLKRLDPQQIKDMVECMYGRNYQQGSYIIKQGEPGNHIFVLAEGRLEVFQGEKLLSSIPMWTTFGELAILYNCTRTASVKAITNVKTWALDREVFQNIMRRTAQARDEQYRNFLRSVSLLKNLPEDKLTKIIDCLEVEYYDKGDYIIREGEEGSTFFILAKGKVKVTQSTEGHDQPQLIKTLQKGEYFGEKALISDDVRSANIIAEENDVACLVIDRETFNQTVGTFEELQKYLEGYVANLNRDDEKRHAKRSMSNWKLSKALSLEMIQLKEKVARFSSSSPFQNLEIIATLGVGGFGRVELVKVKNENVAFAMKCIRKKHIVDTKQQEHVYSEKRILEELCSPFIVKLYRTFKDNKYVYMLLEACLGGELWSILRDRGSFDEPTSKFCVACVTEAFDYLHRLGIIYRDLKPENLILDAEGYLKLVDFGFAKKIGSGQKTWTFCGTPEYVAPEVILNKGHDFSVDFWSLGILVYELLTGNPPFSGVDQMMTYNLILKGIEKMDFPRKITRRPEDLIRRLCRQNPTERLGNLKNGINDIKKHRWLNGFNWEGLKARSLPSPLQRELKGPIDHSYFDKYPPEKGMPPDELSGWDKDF
On the procedure:
as §1

Test [3] addresses T3, CDK18/CycY (Homo sapiens, UniProt Q07002).
T3 construct: purchased ProQinase (Freiburg, Germany)
As to the method: as §1

Test [4] addresses T4, NEK1 (Homo sapiens, UniProt Q96PY6).
T4 construct: purchased ProQinase (Freiburg, Germany)
T4 sequence (Q96PY6 1-1258): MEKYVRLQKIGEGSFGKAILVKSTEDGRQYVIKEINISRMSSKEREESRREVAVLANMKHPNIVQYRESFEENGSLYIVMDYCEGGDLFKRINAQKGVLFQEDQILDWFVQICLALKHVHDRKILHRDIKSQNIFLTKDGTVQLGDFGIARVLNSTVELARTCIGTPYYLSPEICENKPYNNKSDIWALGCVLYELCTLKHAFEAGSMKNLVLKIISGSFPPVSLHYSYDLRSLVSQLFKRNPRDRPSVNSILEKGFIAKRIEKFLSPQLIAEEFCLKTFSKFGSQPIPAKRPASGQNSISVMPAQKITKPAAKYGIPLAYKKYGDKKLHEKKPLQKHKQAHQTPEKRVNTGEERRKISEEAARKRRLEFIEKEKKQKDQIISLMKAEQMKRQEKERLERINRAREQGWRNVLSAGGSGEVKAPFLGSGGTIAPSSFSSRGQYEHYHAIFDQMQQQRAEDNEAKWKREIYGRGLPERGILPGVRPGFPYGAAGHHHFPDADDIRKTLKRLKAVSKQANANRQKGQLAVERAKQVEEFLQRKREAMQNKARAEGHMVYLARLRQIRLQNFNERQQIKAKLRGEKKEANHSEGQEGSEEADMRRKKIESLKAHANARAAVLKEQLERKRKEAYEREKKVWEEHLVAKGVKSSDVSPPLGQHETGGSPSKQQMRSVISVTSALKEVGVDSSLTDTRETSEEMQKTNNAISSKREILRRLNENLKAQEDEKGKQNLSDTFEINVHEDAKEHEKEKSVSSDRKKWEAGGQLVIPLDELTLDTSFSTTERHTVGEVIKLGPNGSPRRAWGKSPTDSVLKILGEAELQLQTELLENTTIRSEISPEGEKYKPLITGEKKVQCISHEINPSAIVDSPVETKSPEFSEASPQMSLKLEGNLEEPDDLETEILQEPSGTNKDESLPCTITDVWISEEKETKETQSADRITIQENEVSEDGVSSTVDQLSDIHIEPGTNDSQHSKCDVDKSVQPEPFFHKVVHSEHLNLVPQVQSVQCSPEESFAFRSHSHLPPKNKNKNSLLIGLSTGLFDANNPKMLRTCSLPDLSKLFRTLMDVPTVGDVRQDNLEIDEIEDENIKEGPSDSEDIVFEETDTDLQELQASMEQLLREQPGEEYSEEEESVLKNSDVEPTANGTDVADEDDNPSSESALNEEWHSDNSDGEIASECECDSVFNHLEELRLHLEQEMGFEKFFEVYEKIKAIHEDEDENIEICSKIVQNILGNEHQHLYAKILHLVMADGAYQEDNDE
As to the method: as §1

T1 sequence (P34947 whole entry): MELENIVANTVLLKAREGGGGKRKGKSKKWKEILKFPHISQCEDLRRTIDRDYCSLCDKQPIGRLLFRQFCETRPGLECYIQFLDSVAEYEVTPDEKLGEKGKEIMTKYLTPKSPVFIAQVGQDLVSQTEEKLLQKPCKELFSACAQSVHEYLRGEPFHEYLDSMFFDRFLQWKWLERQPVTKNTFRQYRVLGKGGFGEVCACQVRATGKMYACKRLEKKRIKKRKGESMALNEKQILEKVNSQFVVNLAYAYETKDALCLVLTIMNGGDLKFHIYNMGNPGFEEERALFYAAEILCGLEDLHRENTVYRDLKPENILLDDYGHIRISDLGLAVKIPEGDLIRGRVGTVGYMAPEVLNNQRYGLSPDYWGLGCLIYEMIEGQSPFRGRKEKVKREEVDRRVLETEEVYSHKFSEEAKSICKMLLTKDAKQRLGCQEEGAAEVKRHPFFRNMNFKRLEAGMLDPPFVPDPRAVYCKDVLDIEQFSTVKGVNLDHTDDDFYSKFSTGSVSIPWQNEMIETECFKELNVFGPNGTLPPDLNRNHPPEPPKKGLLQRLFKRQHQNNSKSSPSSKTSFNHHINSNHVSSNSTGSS
T3 sequence (Q07002 whole entry): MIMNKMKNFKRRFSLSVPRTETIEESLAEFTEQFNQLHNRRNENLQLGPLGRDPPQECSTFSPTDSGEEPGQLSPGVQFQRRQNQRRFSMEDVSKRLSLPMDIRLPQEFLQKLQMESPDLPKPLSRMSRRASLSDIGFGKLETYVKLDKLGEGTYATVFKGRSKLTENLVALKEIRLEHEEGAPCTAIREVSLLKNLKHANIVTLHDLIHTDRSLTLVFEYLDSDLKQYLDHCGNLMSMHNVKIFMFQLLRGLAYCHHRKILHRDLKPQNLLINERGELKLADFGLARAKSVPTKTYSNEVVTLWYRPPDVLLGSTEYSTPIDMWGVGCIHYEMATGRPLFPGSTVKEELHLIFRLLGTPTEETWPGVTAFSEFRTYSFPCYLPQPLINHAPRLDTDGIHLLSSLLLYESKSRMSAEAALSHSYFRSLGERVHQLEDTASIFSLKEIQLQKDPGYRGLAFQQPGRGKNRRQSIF
T3 sequence (Q8ND76 whole entry partner): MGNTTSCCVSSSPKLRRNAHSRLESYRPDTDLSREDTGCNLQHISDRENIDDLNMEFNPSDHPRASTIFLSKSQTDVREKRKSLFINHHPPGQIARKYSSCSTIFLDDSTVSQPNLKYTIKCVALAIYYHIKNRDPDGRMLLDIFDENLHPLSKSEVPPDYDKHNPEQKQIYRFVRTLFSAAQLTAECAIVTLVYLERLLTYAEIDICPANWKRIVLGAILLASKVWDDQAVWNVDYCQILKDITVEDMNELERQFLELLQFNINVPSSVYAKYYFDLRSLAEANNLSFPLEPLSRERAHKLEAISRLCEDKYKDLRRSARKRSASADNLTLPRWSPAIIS

For `O=C(Nc1ccc(F)c(Nc2ccc3c(c2)CCCCC3=O)c1)c1cccc(F)c1` [Compound 109], the Residual activity is recorded as 103 % of control in test [1] (1.0E-05 M); 102 % of control in test [1] (1.0E-06 M); 84 % of control in test [2] (1.0E-05 M); 88 % of control in test [2] (1.0E-06 M); 98 % of control in test [3] (1.0E-05 M); 91 % of control in test [3] (1.0E-06 M). Further, the Residual activity is listed as 93 % of control in test [4] (1.0E-05 M) and 96 % of control in test [4] (1.0E-06 M).
Take `O=C(Cc1ccccc1)Nc1ccc(F)c(Nc2ccc3c(c2)CCCCC3=O)c1` [Compound 100]: the Residual activity in test [1] (1.0E-05 M) is given as 106 % of control; in test [1] (1.0E-06 M), 104 % of control; in test [2] (1.0E-05 M), 83 % of control; in test [2] (1.0E-06 M), 94 % of control; in test [3] (1.0E-05 M) it was 88 % of control; in test [3] (1.0E-06 M), 93 % of control. In addition, the Residual activity in test [4] (1.0E-05 M) is on record as 96 % of control; in test [4] (1.0E-06 M) it was 98 % of control.
